Results: ChEMBL document CHEMBL1201862, “PubChem BioAssay data set” (2004)
The source made the active and inactive calls.

Legend:
[1] = molecular target: Peroxisome proliferator-activated receptor gamma/Nuclear receptor coactivator 3 (Homo sapiens, UniProt P37231); type: functional;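 note: agonist potency for raising coactivator recruitment to the receptor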
[2] = molecular target: Peroxisome proliferator-activated receptor gamma/Nuclear receptor coactivator 1 (Homo sapiens, UniProt P37231); type: functional;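 note: agonist potency as compounds enhance coactivator SRC-1 recruitment to PPARgamma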
Chain of Peroxisome proliferator-activated receptor gamma/Nuclear receptor coactivator 1 (P37231 whole entry): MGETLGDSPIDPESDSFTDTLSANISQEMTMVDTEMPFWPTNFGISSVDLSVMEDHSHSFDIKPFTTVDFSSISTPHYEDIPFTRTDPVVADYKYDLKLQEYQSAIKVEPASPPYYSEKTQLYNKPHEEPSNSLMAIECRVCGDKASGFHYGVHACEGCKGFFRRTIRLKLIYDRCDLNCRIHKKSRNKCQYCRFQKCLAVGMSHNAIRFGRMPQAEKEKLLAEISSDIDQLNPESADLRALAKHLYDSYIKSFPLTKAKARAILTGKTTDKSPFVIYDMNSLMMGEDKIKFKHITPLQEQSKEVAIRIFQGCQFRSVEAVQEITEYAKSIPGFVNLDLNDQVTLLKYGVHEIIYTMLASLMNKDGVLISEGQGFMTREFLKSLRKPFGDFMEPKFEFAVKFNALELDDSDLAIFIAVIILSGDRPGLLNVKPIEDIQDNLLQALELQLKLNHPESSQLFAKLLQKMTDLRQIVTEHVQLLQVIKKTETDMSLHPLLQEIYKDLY
Chain of Peroxisome proliferator-activated receptor gamma/Nuclear receptor coactivator 1 (Q15788 whole entry, further chain): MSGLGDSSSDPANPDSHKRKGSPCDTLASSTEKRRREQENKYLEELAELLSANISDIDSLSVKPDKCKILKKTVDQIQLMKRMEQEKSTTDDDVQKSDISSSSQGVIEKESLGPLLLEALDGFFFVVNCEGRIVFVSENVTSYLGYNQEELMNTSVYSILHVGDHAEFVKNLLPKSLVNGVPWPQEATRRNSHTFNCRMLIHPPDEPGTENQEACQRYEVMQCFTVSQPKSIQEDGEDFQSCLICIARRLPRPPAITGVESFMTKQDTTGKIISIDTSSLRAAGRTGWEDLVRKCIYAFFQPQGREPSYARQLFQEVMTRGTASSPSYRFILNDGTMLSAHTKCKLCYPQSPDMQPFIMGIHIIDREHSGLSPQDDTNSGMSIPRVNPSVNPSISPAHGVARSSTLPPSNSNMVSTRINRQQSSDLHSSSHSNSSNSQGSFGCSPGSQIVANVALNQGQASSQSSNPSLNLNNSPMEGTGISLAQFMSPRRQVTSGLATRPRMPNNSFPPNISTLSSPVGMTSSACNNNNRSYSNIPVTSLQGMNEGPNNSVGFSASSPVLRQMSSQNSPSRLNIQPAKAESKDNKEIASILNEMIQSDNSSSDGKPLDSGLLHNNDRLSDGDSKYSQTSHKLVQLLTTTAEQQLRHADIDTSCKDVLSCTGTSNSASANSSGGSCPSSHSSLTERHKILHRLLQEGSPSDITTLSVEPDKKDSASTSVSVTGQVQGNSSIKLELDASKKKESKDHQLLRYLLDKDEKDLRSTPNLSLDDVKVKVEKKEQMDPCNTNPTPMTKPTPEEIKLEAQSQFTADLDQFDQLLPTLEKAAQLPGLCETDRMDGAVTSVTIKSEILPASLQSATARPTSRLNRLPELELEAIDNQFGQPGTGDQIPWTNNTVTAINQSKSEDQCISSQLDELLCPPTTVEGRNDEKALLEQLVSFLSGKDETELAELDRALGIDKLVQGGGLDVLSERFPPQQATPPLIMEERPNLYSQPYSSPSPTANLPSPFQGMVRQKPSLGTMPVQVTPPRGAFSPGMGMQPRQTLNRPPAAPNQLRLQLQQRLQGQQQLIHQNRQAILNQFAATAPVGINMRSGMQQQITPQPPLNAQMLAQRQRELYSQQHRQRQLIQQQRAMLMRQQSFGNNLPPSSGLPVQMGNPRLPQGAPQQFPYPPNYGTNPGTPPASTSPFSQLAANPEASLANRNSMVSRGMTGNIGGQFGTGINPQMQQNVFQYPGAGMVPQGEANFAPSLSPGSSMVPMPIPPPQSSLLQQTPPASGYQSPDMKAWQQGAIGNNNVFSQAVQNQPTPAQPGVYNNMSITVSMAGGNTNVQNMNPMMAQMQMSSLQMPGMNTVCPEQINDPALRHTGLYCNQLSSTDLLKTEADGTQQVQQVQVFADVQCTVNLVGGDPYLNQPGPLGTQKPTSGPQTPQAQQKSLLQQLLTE

[3] = molecular target: Peroxisome proliferator-activated receptor gamma/Nuclear receptor coactivator 2 (Homo sapiens, UniProt P37231); type: functional;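 note: agonist potency for raising coactivator recruitment to the receptor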
Chain of Peroxisome proliferator-activated receptor gamma/Nuclear receptor coactivator 2 (P37231 whole entry): as the sequence (P37231 whole entry) above
Chain of Peroxisome proliferator-activated receptor gamma/Nuclear receptor coactivator 2 (Q15596 whole entry, further chain): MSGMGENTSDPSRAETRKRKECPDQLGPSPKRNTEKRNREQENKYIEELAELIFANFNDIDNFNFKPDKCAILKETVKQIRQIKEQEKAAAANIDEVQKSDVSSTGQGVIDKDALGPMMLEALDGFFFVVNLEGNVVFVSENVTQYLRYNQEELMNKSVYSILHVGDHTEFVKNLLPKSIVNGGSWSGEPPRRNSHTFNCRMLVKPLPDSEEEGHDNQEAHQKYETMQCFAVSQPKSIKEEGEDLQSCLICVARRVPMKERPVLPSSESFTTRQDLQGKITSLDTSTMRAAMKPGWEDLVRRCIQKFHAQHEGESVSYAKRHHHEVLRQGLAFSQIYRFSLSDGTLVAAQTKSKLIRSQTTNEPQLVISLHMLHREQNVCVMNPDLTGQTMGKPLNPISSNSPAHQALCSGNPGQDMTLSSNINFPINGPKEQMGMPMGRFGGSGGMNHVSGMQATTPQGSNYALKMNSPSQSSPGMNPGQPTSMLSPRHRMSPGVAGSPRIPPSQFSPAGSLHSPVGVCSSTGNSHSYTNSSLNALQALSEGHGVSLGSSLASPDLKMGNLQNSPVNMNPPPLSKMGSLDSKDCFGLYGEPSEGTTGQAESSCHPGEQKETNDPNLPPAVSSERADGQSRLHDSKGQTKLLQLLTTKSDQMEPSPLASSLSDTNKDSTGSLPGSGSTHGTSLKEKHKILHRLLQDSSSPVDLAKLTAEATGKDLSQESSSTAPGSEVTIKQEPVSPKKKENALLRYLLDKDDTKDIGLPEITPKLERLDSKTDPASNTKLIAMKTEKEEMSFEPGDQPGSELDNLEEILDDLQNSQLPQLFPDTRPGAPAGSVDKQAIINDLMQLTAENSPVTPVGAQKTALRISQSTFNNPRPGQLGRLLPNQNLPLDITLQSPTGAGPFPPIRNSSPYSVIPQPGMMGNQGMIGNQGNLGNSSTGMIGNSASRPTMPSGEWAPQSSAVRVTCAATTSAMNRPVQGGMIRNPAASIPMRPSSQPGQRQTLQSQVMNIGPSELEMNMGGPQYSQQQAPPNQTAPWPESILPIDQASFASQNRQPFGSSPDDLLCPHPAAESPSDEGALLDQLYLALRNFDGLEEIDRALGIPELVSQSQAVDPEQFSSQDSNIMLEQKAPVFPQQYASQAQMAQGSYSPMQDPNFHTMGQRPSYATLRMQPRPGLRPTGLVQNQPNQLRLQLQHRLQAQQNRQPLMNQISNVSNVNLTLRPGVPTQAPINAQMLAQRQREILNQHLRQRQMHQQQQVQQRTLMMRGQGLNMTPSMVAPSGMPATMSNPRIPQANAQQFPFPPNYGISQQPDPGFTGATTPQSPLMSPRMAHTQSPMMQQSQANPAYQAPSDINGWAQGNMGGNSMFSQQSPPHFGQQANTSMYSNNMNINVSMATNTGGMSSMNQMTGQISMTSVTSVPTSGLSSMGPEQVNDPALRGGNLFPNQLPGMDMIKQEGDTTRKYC

[4] = system: HeLa; assay: HeLa cell cytotoxicity, dose response, cytotoxicity control, 24 h, cherry-picked samples (AID 504726); type: functional, cell-based; conditions: Homo sapiens;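 note: potency for cytotoxicity as loss of luminescence signal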
[5] = molecular target: G-protein coupled receptor 55 (Homo sapiens, UniProt Q9Y2T6); assay: GPR55 antagonists blocking LPI-driven arrestin recruitment, primary screen, imaging, U2OS, beta-arrestin-GFP, LPI agonist (AID 2013); type: functional;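 note: antagonist potency measured as reduced agonist-driven arrestin aggregation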
Chain of G-protein coupled receptor 55 (Q9Y2T6 whole entry): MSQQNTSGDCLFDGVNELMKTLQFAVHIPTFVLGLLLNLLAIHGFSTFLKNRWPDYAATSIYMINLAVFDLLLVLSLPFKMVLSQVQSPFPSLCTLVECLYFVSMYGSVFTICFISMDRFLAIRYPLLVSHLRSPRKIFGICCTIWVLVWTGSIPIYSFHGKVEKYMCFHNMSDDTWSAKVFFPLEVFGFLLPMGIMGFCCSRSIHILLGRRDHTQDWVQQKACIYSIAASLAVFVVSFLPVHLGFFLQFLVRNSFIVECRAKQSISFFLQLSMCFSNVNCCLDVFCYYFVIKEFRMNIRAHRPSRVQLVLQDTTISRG

[6] = molecular target: T1, Zinc finger protein mex-5 (Caenorhabditis elegans, UniProt Q9XUB2); assay: MEX-5/TCR-2 RNA interaction inhibitors, dose response, biochemical, C. elegans, fluorescence polarization (AID 1960)
T1 sequence (Q9XUB2 whole entry): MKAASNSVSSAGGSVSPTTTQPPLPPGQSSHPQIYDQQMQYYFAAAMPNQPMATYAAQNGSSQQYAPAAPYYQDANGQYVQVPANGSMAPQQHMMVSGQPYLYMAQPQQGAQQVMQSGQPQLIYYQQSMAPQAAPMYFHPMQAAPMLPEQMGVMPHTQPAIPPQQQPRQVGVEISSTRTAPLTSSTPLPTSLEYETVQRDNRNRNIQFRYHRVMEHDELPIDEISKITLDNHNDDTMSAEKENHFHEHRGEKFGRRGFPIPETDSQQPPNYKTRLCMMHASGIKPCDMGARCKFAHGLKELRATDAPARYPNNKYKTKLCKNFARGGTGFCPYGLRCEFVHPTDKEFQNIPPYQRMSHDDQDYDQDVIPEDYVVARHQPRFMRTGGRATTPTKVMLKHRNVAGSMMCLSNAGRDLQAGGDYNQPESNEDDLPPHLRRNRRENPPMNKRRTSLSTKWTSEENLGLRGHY

[7] = molecular target: T2, RNA-binding protein pos-1 (Caenorhabditis elegans, UniProt G5EF15); assay: inhibitors of POS-1/mex-3 RNA binding, dose response, biochemical, fluorescence polarization (AID 1964);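 note: purified POS-1 fused to maltose binding protein made in E. coli; potency of compounds blocking POS-1 binding to fluorescent RNA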
T2 sequence (G5EF15 whole entry): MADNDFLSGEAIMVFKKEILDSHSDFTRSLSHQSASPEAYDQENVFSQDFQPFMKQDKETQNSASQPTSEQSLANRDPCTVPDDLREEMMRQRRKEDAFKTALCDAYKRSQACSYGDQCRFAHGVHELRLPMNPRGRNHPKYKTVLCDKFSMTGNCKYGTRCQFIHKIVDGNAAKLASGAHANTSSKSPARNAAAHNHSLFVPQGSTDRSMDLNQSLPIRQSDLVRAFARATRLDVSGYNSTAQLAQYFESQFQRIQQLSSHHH

[8] = molecular target: Ion channel NompC (Danio rerio, UniProt Q7T1G6); assay: Fluorescence counterscreen assay for TRPML3 agonists: dose response cell-based high-throughput screening assay to identify agonists of the transient receptor potential channel N1 (TRPN1). [Related pubchem assays: 1526, 1424, 1448 ]; type: functional
[9] = molecular target: T3, Mucolipin-3 (Homo sapiens, UniProt Q8TDD5); assay: Dose response cell-based high-throughput screening assay for agonists of the transient receptor potential channel ML3 (TRPML3). [Related pubchem assays: 1526, 1424, 1448 ]; type: functional
T3 sequence (Q8TDD5 whole entry): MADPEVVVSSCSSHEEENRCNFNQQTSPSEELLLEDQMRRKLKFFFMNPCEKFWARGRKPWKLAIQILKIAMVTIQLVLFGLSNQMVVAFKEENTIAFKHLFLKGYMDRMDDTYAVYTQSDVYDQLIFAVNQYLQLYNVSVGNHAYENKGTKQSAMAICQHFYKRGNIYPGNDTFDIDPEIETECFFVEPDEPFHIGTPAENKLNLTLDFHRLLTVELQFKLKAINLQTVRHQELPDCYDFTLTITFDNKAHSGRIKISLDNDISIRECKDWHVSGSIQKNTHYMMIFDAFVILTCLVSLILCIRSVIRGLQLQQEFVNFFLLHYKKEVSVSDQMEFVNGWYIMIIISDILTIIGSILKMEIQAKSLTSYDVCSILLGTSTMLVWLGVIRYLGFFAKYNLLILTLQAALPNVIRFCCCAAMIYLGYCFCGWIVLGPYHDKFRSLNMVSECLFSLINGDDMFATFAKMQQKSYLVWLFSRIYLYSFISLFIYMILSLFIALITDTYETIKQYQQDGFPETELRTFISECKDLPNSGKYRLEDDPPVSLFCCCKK

[10] = molecular target: T4, Heat shock factor protein 1 (Mus musculus, UniProt P38532); assay: inhibition of MG132-induced HSE-luciferase signal, confirmation, cell-based, NIH3T3, luminescence, dose retest (AID 2382); type: functional;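 note: NIH3T3 fibroblasts with HSF1-driven luciferase reporter stressed by proteasome inhibitor MG132; luminescence from HSF1-driven luciferase expression after 8 hours of MG132 stress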
T4 sequence (P38532 whole entry): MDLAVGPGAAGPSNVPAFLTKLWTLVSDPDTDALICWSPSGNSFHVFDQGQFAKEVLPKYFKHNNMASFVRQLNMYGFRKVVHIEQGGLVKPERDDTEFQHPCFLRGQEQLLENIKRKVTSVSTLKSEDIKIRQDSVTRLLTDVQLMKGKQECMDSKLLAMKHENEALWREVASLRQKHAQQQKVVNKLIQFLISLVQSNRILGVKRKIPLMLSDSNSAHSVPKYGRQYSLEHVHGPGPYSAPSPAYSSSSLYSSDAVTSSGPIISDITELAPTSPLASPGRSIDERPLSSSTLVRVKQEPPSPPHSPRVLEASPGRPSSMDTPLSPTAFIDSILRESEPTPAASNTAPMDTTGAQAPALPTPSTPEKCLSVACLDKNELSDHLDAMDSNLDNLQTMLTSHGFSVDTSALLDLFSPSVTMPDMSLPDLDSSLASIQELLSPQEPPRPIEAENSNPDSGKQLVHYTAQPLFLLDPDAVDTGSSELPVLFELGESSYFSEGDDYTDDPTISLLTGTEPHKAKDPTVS

[11] = molecular target: T5, Leucine aminopeptidase (Plasmodium falciparum 3D7, UniProt Q8IL11); assay: P. falciparum M17LAP inhibitors, primary screen, biochemical, fluorogenic H-Leu-NHMec substrate, 1536-well (AID 1619); type: functional
T5 sequence (Q8IL11 whole entry): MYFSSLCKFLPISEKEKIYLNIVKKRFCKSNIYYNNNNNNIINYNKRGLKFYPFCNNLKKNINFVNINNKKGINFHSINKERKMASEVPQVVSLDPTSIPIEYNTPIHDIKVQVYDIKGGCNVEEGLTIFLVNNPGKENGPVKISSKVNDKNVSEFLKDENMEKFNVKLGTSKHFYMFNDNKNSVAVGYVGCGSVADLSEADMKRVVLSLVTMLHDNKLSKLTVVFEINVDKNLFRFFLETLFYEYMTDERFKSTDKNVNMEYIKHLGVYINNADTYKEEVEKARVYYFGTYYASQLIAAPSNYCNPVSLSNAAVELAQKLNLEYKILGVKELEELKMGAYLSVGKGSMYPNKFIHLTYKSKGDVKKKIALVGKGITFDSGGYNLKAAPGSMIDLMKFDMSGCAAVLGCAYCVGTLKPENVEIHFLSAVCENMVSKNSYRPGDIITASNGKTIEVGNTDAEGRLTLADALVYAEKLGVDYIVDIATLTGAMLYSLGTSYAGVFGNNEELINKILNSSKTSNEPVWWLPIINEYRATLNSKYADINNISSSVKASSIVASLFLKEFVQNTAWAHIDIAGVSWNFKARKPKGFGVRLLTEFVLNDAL

[12] = system: HEK293; assay: cells; type: functional, cell-based; conditions: Homo sapiens
[13] = system: HEK293; assay: NOD2 signaling inhibitors in MDP-stimulated cells, cell-based, uHTS, luminescence (AID 2001); type: functional; conditions: Homo sapiens
[14] = system: HEK293; assay: cells; type: functional, cell-based; conditions: Homo sapiens; remark: listed apart in the source
[15] = system: HEK293; assay: NOD1 signaling inhibitors, primary screen, cell-based, luminescence, uHTS (AID 1578); type: functional; conditions: Homo sapiens
[16] = system: HEK293; assay: cells; type: functional, cell-based; conditions: Homo sapiens; remark: listed apart in the source
[17] = molecular target: Nucleotide-binding oligomerization domain-containing protein 2 (Homo sapiens, UniProt Q9HC29); assay: NOD2 signaling inhibitors, cell-based, luminescence, uHTS, HEK293 (AID 1566); type: functional
[18] = molecular target: DNA dC->dU-editing enzyme APOBEC-3G (Homo sapiens, UniProt Q9HC16); assay: Dose Response confirmation of small molecule APOBEC3G DNA Deaminase Inhibitors via a fluorescence-based single-stranded DNA deaminase assay. [Related pubchem assays (depositor defined):AID493012, AID493028]; type: functional
Chain of DNA dC->dU-editing enzyme APOBEC-3G (Q9HC16 whole entry): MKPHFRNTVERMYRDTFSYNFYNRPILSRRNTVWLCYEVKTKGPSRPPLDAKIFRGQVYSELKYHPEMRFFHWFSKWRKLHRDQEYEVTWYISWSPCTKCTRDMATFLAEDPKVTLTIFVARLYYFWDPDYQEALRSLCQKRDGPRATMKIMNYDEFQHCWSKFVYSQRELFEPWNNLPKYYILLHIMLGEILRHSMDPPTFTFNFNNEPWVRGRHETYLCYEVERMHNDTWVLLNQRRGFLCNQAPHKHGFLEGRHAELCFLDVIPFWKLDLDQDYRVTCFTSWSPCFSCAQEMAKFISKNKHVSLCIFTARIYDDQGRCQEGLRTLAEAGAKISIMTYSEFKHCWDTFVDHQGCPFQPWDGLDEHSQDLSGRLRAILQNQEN

[19] = molecular target: DNA dC->dU-editing enzyme APOBEC-3A (Homo sapiens, UniProt P31941); assay: APOBEC3A DNA deaminase inhibitors, dose response, biochemical (AID 504722); type: functional
Chain of DNA dC->dU-editing enzyme APOBEC-3A (P31941 whole entry): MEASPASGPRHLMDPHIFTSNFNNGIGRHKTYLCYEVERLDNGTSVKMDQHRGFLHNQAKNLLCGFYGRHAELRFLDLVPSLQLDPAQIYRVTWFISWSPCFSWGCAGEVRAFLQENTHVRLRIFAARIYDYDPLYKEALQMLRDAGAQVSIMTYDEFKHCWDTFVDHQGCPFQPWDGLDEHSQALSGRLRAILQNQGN

[20] = molecular target: Large T antigen (Simian virus 40, UniProt P03070); type: functional, Betapolyomavirus macacae;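 note: Confirmatory-stage PubChem screen for compounds that inhibit SV40 T antigen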

## CC(C)[C@H](NC(=O)OC(C)(C)C)c1nnc(SCc2cccc(F)c2)o1
[1]
  EC50: 16.9 µM (not active)
[2]
  EC50: 8.46 µM (active)
[3]
  EC50: 24 µM (not active)

## CCOC(=O)c1c(C)n(C)c2ccc(OCCN(C)C)cc12
[4]
  AC50: > 350 µM (inactive)

## Cc1ccc(/C=C2/C(=O)NC(=O)N(CCc3ccc(F)cc3)C2=O)o1
[5]
  IC50: 4.5 µM (active)
[6]
  EC50: 290 µM (active)
[7]
  EC50: > 300 µM (not active)

## CCOC(=O)C1CCN(CCC(=O)Nc2ccc(C)c(C)c2)CC1
[1]
  EC50: > 79.4 µM (not active)
[2]
  EC50: > 79.4 µM (not active)
[3]
  EC50: > 79.4 µM (not active)

## CC1CC(C)CN(C(=O)c2ccc3ncsc3c2)C1 (stereo not drawn)
[4]
  AC50: 95.4 µM (active)

## CCC1CCCCN1S(=O)(=O)c1ccc(S(=O)(=O)N(Cc2cccs2)C2CC2)cc1 (stereo not drawn)
[8]
  EC50: > 29.9 µM (not active)
[9]
  EC50: 1.16 µM (active)

## Cc1ccc(S(=O)(=O)N2CCC(C)CC2)cc1[N+](=O)[O-]
[8]
  EC50: > 29.9 µM (not active)
[10]
  EC50: > 195 µM (not active)
[9]
  EC50: 3.51 µM (active)

## CC(Sc1nc2ccccc2s1)C(=O)Nc1nnc(C(C)C)s1 (stereo not drawn)
[10]
  EC50: > 195 µM (not active)
[4]
  AC50: > 350 µM (inactive)
[11]
  IC50: 2.84 µM (active)

## Cc1cc(C(=O)COc2cccnc2[N+](=O)[O-])c(C)n1Cc1cccs1
[12]
  IC50: > 20 µM (inactive)
[13]
  IC50: > 20 µM (inactive)
[14]
  IC50: > 20 µM (inactive)
[15]
  EC50: > 20 µM (inactive)
[16]
  IC50: > 20 µM (inactive)
[17]
  EC50: 8.89 µM (active)

## COc1cccc2cc(-c3n[nH]c(=S)n3C)oc12
[18]
  IC50: 2.18 µM (active)
[19]
  IC50: > 100 µM (inactive)

## Cn1ncc([N+](=O)[O-])c1C(=O)N/N=C/c1ccc(F)cc1
[1]
  EC50: > 79.4 µM (not active)
[2]
  EC50: > 79.4 µM (not active)
[3]
  EC50: > 79.4 µM (not active)

## COc1cc(/C=N/n2c(S)nnc2-c2[nH]nc3c2CCC3)ccc1O
[18]
  IC50: 1.56 µM (active)
[20]
  IC50: 7.5 µM (active)
[19]
  IC50: > 100 µM (inactive)
